# Source: ChEMBL document CHEMBL3046691, “Herbicidal pyridyl derivatives of aminomethylene-bisphosphonic acid inhibit plant glutamine synthetase” (J Agric Food Chem, 2004)
# The source made the active and inactive calls. The rule behind the calls is not given here.
# Experiments:
# Oryza sativa [1] = assay: Effect on amino acid pool in Oryza sativa cv. Gigante vercellese (rice) cells assessed as total amino acid content per gram fresh weight of culture at 0.5 mM after 48 hr (reference value: 24.65 +/- 0.97 umol); format: functional
# Oryza sativa [2] = assay: Effect on amino acid pool in Oryza sativa cv. Gigante vercellese (rice) cells assessed as asparagine content per gram freshweight of culture at 0.5 mM after 48 hr (reference value: 3.18 +/- 0.25 umol); format: functional
# Glutamine synthetase [3] = molecular target: T1, Glutamine synthetase (Oryza sativa, UniProt Q01HZ7); assay: (§1) Inhibition of Oryza sativa cv. Gigante vercellese (rice) glutamine synthetase by transferase assay; details: read-out: I50
# T1 sequence (Q01HZ7 whole entry): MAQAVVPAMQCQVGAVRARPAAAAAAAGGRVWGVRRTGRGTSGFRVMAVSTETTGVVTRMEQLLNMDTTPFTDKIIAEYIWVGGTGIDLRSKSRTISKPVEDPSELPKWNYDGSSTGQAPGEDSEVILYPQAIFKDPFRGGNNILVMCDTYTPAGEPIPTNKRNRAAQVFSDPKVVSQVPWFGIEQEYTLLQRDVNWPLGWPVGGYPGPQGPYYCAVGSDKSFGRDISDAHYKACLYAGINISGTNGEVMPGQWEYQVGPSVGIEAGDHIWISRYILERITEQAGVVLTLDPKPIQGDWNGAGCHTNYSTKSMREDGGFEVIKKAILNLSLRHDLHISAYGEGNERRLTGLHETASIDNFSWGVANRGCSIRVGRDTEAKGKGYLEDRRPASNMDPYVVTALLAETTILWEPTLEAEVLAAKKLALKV
# Oryza sativa [4] = assay: Effect on amino acid pool in Oryza sativa cv. Gigante vercellese (rice) cells assessed as aspartic acid content per gram freshweight of culture at 0.5 mM after 48 hr (reference value: 1.10 +/- 0.26 umol); format: functional
# [5] = molecular target: T2, Glutamine synthetase (Oryza sativa) (UniProt Q01HZ7); assay: Inhibition of Oryza sativa cv. Gigante vercellese (rice) glutamine synthetase assessed as inhibition of glutamine synthesis from glutamic acid at 1 mM after 15 min by biosynthetic assay; details: values are per cent of control
# T2 sequence (whole entry): T1 sequence (Q01HZ7 whole entry)
# Oryza sativa [6] = assay: Effect on amino acid pool in Oryza sativa cv. Gigante vercellese (rice) cells assessed as serine content per gram freshweight of culture at 0.5 mM after 48 hr (reference value: 0.60 +/- 0.09 umol); format: functional
# [7] = molecular target: T2, Glutamine synthetase (Oryza sativa); assay: Inhibition of Oryza sativa cv. Gigante vercellese (rice) glutamine synthetase at 1 mM by transferase assay; details: values are per cent of control
# Oryza sativa [8] = assay: Effect on amino acid pool in Oryza sativa cv. Gigante vercellese (rice) cells assessed as glutamine content per gram fresh weight of culture at 0.5 mM after 48 hr (reference value: 4.24 +/- 0.35 umol); format: functional
# Glutamine synthetase [9] = molecular target: T1, Glutamine synthetase; assay: Inhibition of Oryza sativa cv. Gigante vercellese (rice) glutamine synthetase assessed as inhibition of glutamine synthesis from glutamic acid after 15 min by biosynthetic assay; details: read-out: I50
# Glutamine synthetase [10] = molecular target: T1, Glutamine synthetase; assay: (§2) Inhibition of Oryza sativa cv. Gigante vercellese (rice) glutamine synthetase after 30 min by hemibiosynthetic assay; details: read-out: I50
# Oryza sativa [11] = assay: Effect on amino acid pool in Oryza sativa cv. Gigante vercellese (rice) cells assessed as glutamic acid content per gram freshweight of culture at 0.5 mM after 48 hr (reference value: 0.75 +/- 0.07 umol); format: functional
# [12] = molecular target: T2, Glutamine synthetase (Oryza sativa); assay: Inhibition of Oryza sativa cv. Gigante vercellese (rice) glutamine synthetase at 1 mM after 30 min by hemibiosynthetic assay; details: values are per cent of control
# [13] = molecular target: T2, Glutamine synthetase (Oryza sativa); assay: as §1
# [14] = molecular target: T2, Glutamine synthetase (Oryza sativa); assay: Reversible inhibition of Oryza sativa cv. Gigante vercellese (rice) glutamine synthetase assessed as inhibition of glutamine synthesis from glutamic acid at 10 uM after 50 min by biosynthetic assay
# [15] = molecular target: T2, Glutamine synthetase (Oryza sativa); assay: Reversible inhibition of Oryza sativa cv. Gigante vercellese (rice) glutamine synthetase assessed as inhibition of glutamine synthesis from glutamic acid at 20 uM after 50 min by biosynthetic assay
# [16] = molecular target: T2, Glutamine synthetase (Oryza sativa); assay: as §2
SMILES,I50 [13],I50 [16],Activity (Oryza sativa [1]) [umol/g fresh weight],Activity (Oryza sativa [2]) [umol/g fresh weight],IC50 (Glutamine synthetase [3]) [µM],Activity (Oryza sativa [4]) [umol/g fresh weight],residual activity [5] [%],Activity (Oryza sativa [6]) [umol/g fresh weight],residual activity [7] [%],Activity (Oryza sativa [8]) [umol/g fresh weight],IC50 (Glutamine synthetase [9]) [µM],IC50 (Glutamine synthetase [10]) [µM],Activity (Oryza sativa [11]) [µmol/g fresh weight],residual activity [12] [%],inhibition [14],inhibition [15]
O=P(O)(O)C(NCc1ccccn1)P(=O)(O)O,–,–,26.94,0.63,1130,1.66,8.8,1.53,54.6,3.25,64,103,4.78,16.1,–,–
NC(P(=O)(O)O)P(=O)(O)O,–,–,–,–,–,–,119,–,96.4,–,–,–,–,81.2,–,–
Cc1ccc(NC(P(=O)(O)O)P(=O)(O)O)cc1 [(P-TOLYLAMINO)METHYLENEDIPHOSPHONIC ACID],inactive,–,22.91,0.61,–,0.76,14.3,0.6,93.8,2.95,170,774,2.97,57.6,–,–
O=P(O)(O)C(NC1CCCCC1)P(=O)(O)O [(CYCLOHEXYLAMINO)METHYLENEDIPHOSPHONIC ACID],–,–,–,–,915,–,50.5,–,46.1,–,1110,461,–,32.7,–,–
O=P(O)(O)C(Nc1ccncc1)P(=O)(O)O,–,–,32.64,1.14,–,1.21,119,2.22,84.9,4.79,–,–,4.24,97.2,–,–
O=P(O)(O)C(Nc1ccc(Cl)cn1)P(=O)(O)O,–,–,–,–,1040,–,13.9,–,52.8,–,69,96,–,17.5,–,–
O=P(O)(O)C(NCc1ccccc1)P(=O)(O)O,–,–,–,–,–,–,109,–,102,–,–,–,–,89.1,–,–
CP(=O)(O)CC[C@H](N)C(=O)O [PHOSPHINOTHRICIN],–,–,–,–,172,–,2,–,25.7,–,44,49,–,9.9,inactive,–
O=[N+]([O-])c1cccc(NC(P(=O)(O)O)P(=O)(O)O)c1 [(3-NITROPHENYLAMINO)METHYLENEDIPHOSPHONIC ACID],–,–,–,–,1.99,–,97.6,–,95.6,–,738,1620,–,101,–,–
O=C(O)c1cccnc1NC(P(=O)(O)O)P(=O)(O)O [2-(DIPHOSPHONOMETHYLAMINO)NICOTINIC ACID],–,–,–,–,1.45,–,27.2,–,61,–,334,624,–,40.8,–,–
O=P(O)(O)C(Nc1ccccc1)P(=O)(O)O,–,–,–,–,–,–,108,–,44.3,–,–,–,–,92,–,–
Cc1ccccc1CNC(P(=O)(O)O)P(=O)(O)O,–,–,–,–,–,–,101,–,50.8,–,–,–,–,70.5,–,–
"O=P(O)(O)C(Nc1cc(Cl)cc(Cl)c1)P(=O)(O)O [(3,5-DICHLOROPHENYLAMINO)METHYLENEDIPHOSPHONIC ACID]",–,–,28.61,0.49,0.396,0.57,3.1,1.26,38.1,2.72,33,88,3.19,13.1,–,Active
Cc1cccc(NC(P(=O)(O)O)P(=O)(O)O)n1,–,–,–,–,–,–,114,–,25.9,–,–,–,–,74.4,–,–
O=P(O)(O)C(Nc1ccccn1)P(=O)(O)O,–,–,–,–,1040,–,37.6,–,60.1,–,243,215,–,30.2,–,–
O=P(O)(O)C(Nc1ncccn1)P(=O)(O)O,–,–,–,–,–,–,42.3,–,76.8,–,–,–,–,64.3,–,–

# Second part, led by results:
I50 [13],I50 [16],SMILES,Activity (Oryza sativa [1]) [umol/g fresh weight],Activity (Oryza sativa [2]) [umol/g fresh weight],IC50 (Glutamine synthetase [3]) [µM],Activity (Oryza sativa [4]) [umol/g fresh weight],residual activity [5] [%],Activity (Oryza sativa [6]) [umol/g fresh weight],residual activity [7] [%],Activity (Oryza sativa [8]) [umol/g fresh weight],IC50 (Glutamine synthetase [9]) [µM],IC50 (Glutamine synthetase [10]) [µM],Activity (Oryza sativa [11]) [µmol/g fresh weight],residual activity [12] [%],inhibition [14],inhibition [15]
inactive,–,O=P(O)(O)C(NCCc1ccc(O)cc1)P(=O)(O)O [(4-HYDROXYPHENETHYLAMINO)METHYLENEDIPHOSPHONIC ACID],–,–,–,–,72.6,–,98.4,–,4470,695,–,36.9,–,–
inactive,inactive,O=C(O)c1cccc(NC(P(=O)(O)O)P(=O)(O)O)c1 [3-(DIPHOSPHONOMETHYLAMINO)BENZOIC ACID],–,–,–,–,62.5,–,104,–,1800,–,–,99,–,–
